Where two headings read alike, the source gives them in different places. One block for each compound: values may come before it.
Key:
Assay in all cases: Kinase panel study
Assay type in all cases: biochemical
AKT1 (PKB alpha) = target: T1, AKT1 (PKB alpha) (Homo sapiens, UniProt P31749)
T1 construct: purchased Thermo Fisher Scientific
Procedure: (§1) The Kinase panel study was entirely provided by Thermo Fisher Scientific using the two lead compounds MW01 and MW05 as well as their derivatives (MW01-E06, MW01-E10, MW01-E14, MW01-E18, MW05-E2, MW05-E3, MW05-E9 and MW05-E10. The experiment was performed using the ZLyte or Adapta protocol according to manufacturer standard operating procedures.
(§2) Based on their similar effects in our screen and molecular analysis, MW01 and MW05 were used in comparative target deconvolution studies seeking common targets despite their distinct structures. To eliminate previously identified kinases regulating NF-κB activity, such as IKK, as possible targets of MW01 and MW05, an in vitro kinase inhibition assay was performed. […] We next investigated if any of the shared kinase targets of MW01 and MW05 play a role in genotoxic stress-induced NF-κB activity and established several criteria to narrow down pathway-relevant targets. Considering the similar NF-κB inhibition phenotypes of both compounds, we hypothesized first that the target should be shared by both lead compounds. Second, based on the CaCo2 recovery values and experimental treatment concentration of 10 µM), the putative target kinase should have a low IC50 of, at most, 2000 nM for both lead compounds in the in vitro kinase panel (Fig. 2A). Based on these criteria alone, we arrived at a relatively short list of potential targets for further analysis, leaving only PIK3CG, PIK3C2G, and CLK2 (Fig. 2B). IC50 values for PIK3C2G by both lead compounds agreed best with these criteria, but RNA expression analysis indicates high tissue specificity as well as lack of expression of this kinase in our U2-OS model cell line, which we then eliminated from further analysis (Uhlén et al., 2015). […] Table 6: Percentage of inhibition of the indicated kinases by MW01 or MW05 at either 10 µM or 1 µM. n.d. = not determined.

DNA-PK = target: T2, DNA-PK (Homo sapiens, UniProt P78527)
T2 construct: purchased Thermo Fisher Scientific
Procedure: as §1, §2

DYRK1A = target: T3, DYRK1A (Homo sapiens, UniProt Q13627)
T3 construct: purchased Thermo Fisher Scientific
Procedure: as §1, §2

DYRK1B = target: T4, DYRK1B (Homo sapiens, UniProt Q9Y463)
T4 construct: purchased Thermo Fisher Scientific
Procedure: as §1, §2

EGFR (ErbB1) = target: T5, EGFR (ErbB1) (Homo sapiens, UniProt P00533)
T5 construct: purchased Thermo Fisher Scientific
Procedure: as §1, §2

IKBKB (IKK beta) = target: T6, IKBKB (IKK beta) (Homo sapiens, UniProt O14920)
T6 construct: purchased Thermo Fisher Scientific
T6 sequence (O14920 1-756): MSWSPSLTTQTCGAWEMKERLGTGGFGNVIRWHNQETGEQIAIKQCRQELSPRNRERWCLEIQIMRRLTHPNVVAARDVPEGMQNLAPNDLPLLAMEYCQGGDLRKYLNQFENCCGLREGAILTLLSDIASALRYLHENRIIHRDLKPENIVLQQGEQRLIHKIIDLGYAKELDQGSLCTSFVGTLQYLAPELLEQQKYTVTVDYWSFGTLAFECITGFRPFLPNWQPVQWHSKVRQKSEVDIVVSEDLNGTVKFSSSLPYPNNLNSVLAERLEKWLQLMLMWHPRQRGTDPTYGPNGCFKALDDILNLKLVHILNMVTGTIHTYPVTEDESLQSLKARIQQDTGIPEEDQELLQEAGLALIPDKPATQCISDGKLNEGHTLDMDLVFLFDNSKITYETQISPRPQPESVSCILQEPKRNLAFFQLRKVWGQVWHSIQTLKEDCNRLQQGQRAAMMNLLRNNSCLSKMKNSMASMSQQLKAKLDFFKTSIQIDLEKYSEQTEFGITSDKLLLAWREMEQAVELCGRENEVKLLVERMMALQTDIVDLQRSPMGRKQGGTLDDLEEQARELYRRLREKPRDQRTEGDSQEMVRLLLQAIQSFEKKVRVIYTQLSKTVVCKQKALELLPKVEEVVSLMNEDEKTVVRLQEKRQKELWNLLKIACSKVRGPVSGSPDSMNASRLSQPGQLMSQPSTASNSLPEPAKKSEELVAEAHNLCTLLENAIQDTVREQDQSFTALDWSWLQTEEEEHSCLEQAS
Procedure: as §1, §2

PI4K2A (PI4K2 alpha) = target: T7, PI4K2A (PI4K2 alpha) (Homo sapiens, UniProt Q9BTU6)
T7 construct: purchased Thermo Fisher Scientific
Procedure: as §1, §2

PIK3C2A (PI3K-C2 alpha) = target: T8, PIK3C2A (PI3K-C2 alpha) (Homo sapiens, UniProt O00443)
T8 construct: purchased Thermo Fisher Scientific
Procedure: as §1, §2

[1] = target: T9, PIK3CA/PIK3R1 (p11 0 alpha/p85 alpha) (Homo sapiens, UniProt P42336)
T9 construct: purchased Thermo Fisher Scientific
Procedure: as §1, §2

[2] = target: T10, PIK3CB/PIK3R1 (p110 beta/p85 alpha) (Homo sapiens, UniProt P42338)
T10 construct: purchased Thermo Fisher Scientific
Procedure: as §1, §2

[3] = target: T11, PIK3CB/PIK3R2 (p11 0 beta/p85 beta) (Homo sapiens, UniProt P42338)
T11 construct: purchased Thermo Fisher Scientific
Procedure: as §1, §2

[4] = AKT1 (PKB alpha), compound at 10µM, read-out: % of Inhibition
[5] = DNA-PK, compound at 10µM, read-out: % of Inhibition
[6] = DYRK1A, compound at 10µM, read-out: % of Inhibition
[7] = DYRK1B, compound at 10µM, read-out: % of Inhibition
[8] = EGFR (ErbB1), compound at 10µM, read-out: % of Inhibition
[9] = IKBKB (IKK beta), compound at 10µM, read-out: % of Inhibition
[10] = PI4K2A (PI4K2 alpha), compound at 10µM, read-out: % of Inhibition
[11] = PIK3C2A (PI3K-C2 alpha), compound at 10µM, read-out: % of Inhibition
[12] = PIK3CA/PIK3R1, compound at 10µM, read-out: % of Inhibition
[13] = PIK3CB/PIK3R1, compound at 10µM, read-out: % of Inhibition
[14] = PIK3CB/PIK3R2, compound at 10µM, read-out: % of Inhibition
[15] = 1000nM, read-out: Percentage of inhibition
[16] = 10000nM, read-out: Percentage of inhibition

T4 sequence (Q9Y463 whole entry): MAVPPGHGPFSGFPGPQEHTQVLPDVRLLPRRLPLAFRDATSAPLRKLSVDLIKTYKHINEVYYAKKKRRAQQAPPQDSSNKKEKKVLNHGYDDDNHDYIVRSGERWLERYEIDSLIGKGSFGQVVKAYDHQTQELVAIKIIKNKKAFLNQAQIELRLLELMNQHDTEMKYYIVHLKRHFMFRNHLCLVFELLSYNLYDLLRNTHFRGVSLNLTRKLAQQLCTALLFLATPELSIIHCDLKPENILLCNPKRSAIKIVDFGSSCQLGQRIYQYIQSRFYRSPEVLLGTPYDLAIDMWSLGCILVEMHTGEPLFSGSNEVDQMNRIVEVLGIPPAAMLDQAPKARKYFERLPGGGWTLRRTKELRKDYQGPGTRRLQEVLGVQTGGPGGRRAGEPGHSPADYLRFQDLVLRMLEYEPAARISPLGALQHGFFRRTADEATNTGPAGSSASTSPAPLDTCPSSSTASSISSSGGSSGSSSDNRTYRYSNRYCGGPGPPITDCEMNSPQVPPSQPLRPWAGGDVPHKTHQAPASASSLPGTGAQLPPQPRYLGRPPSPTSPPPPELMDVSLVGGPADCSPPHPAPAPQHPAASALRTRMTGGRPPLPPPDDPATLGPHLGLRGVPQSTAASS
T5 sequence (P00533 25-1210): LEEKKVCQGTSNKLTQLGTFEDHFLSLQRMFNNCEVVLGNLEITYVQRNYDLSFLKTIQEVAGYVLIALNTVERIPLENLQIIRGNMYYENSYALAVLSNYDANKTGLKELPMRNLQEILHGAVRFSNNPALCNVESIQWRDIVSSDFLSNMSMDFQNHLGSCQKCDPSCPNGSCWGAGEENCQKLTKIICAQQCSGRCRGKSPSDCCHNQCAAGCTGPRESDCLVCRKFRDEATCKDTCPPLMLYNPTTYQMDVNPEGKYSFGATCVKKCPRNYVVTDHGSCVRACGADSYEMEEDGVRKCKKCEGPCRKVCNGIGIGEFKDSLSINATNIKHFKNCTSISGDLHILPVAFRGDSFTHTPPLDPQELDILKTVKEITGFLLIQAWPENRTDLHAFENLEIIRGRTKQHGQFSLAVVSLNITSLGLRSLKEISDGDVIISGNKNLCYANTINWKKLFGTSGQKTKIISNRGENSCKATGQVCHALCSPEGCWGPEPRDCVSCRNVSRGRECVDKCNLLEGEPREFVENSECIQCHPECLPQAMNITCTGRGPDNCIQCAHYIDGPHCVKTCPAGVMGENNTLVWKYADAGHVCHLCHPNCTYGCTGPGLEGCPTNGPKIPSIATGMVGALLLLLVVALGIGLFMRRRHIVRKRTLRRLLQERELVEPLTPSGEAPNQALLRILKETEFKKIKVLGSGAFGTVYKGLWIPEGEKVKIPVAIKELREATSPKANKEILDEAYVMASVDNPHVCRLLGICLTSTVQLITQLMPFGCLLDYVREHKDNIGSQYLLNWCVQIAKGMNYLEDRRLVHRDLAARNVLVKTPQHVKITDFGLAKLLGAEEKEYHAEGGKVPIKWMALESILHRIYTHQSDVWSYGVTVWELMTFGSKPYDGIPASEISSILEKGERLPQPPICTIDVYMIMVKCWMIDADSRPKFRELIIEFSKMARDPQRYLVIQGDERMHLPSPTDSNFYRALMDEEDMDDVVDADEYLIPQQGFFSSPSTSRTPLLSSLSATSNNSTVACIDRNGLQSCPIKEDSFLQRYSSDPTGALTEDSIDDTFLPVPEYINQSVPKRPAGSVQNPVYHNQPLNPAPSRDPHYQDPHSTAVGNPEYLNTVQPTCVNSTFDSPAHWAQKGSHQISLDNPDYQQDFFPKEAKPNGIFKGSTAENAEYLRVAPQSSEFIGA
T10 sequence (P42338 whole entry): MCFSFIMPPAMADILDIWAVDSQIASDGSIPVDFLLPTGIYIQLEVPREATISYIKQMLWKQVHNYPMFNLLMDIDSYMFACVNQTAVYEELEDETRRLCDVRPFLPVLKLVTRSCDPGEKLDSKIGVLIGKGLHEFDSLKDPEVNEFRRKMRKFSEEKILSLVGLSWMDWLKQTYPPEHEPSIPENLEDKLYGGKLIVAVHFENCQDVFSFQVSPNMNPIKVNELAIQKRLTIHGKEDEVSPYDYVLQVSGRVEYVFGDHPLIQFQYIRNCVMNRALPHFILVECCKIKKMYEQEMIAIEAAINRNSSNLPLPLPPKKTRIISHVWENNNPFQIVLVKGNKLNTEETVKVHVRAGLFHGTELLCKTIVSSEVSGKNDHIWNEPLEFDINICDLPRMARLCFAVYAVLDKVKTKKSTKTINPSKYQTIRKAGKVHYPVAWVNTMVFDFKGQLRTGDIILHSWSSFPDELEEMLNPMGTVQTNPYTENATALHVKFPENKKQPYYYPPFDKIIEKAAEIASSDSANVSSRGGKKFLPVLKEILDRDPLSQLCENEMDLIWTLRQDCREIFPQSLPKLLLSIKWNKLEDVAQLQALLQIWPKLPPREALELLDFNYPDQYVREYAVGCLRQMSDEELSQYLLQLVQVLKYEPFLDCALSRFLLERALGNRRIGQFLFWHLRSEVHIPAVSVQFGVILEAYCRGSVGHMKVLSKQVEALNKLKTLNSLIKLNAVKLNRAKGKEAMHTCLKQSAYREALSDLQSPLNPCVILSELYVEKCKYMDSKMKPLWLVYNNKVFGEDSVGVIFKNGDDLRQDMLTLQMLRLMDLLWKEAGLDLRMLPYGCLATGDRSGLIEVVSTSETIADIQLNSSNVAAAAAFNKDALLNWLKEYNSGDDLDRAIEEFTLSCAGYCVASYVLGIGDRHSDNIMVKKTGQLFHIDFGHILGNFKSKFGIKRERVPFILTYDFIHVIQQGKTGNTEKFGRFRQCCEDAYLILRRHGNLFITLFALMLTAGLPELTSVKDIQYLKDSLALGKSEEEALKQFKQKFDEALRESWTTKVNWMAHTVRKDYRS
T10 sequence (P27986 whole entry partner): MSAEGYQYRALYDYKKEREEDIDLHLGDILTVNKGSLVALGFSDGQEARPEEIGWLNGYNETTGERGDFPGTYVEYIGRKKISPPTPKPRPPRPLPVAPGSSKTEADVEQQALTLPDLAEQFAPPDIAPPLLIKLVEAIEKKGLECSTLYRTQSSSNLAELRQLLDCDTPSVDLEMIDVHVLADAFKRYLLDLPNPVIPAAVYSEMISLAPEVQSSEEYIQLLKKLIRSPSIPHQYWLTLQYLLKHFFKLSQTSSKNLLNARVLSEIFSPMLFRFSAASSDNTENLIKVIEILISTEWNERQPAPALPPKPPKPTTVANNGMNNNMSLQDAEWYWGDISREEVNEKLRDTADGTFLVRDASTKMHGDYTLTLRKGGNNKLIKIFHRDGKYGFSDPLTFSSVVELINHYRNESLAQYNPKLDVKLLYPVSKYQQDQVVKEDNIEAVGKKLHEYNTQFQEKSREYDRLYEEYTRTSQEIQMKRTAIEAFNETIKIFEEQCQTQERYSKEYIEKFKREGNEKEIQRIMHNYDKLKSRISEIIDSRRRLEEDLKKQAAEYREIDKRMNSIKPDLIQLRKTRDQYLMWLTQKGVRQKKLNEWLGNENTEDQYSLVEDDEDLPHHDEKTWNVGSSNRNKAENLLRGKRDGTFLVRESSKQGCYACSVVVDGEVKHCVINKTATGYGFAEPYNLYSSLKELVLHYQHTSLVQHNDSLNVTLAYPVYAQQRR
T11 sequence (P42338 whole entry): as the sequence (P42338 whole entry) above
T11 sequence (O00459 whole entry partner): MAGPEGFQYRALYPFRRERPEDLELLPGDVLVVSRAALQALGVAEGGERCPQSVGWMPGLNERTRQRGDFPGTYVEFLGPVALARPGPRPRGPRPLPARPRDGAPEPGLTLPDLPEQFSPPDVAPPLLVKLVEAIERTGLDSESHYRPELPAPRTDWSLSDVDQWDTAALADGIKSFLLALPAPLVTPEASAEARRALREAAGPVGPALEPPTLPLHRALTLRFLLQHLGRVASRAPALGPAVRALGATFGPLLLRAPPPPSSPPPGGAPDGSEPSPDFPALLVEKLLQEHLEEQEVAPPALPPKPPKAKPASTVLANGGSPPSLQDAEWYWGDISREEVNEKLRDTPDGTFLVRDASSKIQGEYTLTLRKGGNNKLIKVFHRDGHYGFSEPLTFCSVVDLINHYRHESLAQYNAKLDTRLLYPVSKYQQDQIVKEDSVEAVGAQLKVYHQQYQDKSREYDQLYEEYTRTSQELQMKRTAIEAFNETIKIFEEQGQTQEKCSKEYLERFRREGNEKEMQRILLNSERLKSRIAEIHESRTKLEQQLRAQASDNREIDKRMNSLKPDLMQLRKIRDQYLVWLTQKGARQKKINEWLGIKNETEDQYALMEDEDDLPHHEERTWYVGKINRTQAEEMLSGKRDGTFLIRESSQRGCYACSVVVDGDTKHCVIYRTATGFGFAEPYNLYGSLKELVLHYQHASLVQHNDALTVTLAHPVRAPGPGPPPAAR
T7 sequence (Q9BTU6 whole entry): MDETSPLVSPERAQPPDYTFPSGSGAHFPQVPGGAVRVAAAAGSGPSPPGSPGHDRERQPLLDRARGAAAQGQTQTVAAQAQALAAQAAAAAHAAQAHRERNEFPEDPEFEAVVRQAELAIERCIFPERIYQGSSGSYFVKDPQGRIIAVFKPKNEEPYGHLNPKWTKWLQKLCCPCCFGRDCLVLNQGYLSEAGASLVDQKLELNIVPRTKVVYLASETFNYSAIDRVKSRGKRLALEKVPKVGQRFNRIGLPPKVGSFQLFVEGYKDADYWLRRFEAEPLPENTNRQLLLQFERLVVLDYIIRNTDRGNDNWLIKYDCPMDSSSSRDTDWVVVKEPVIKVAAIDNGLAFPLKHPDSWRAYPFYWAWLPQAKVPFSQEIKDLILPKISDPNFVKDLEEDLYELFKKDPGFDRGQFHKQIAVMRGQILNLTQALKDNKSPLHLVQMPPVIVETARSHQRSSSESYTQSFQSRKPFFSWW

inhibition at 10 µM (AKT1 (PKB alpha); [4]): 9%
inhibition at 10 µM (DNA-PK; [5]): 43%
inhibition at 10 µM (DYRK1A; [6]): 12%
inhibition at 10 µM (DYRK1B; [7]): 23%
inhibition at 10 µM (EGFR (ErbB1); [8]): 9%
inhibition at 10 µM (IKBKB (IKK beta); [9]): 16%
inhibition at 10 µM (PI4K2A (PI4K2 alpha); [10]): 35%
inhibition at 10 µM (PIK3C2A (PI3K-C2 alpha); [11]): 23%
inhibition at 10 µM [1, 12]: 80%
inhibition at 10 µM [2, 13]: 26%
inhibition at 10 µM [3, 14]: 12%
Compound: COc1ccc2c(c1)c1ccnc3c4ccnc(OC)c4c(=O)n2c13 [MW01-E14, 5,17-dimethoxy-1,11,16-triazapentacyclo[10.7.1.0^2,^7.0^8,^20.0^13,^18]icosa-2(7),3,5,8(20),9,11,13(18),14,16-nonaen-19-one]

inhibition at 10 µM (AKT1 (PKB alpha); [4]): 12%
inhibition at 10 µM (DNA-PK; [5]): 94%
inhibition at 10 µM (DYRK1A; [6]): 65%
inhibition at 10 µM (DYRK1B; [7]): 68%
inhibition at 10 µM (EGFR (ErbB1); [8]): 14%
inhibition at 10 µM (IKBKB (IKK beta); [9]): 16%
inhibition at 10 µM (PI4K2A (PI4K2 alpha); [10]): 30%
inhibition at 10 µM (PIK3C2A (PI3K-C2 alpha); [11]): 44%
inhibition at 10 µM [1, 12]: 90%
inhibition at 10 µM [2, 13]: 62%
inhibition at 10 µM [3, 14]: 63%
Compound: O=c1c2cnccc2c2nccc3c4cc(O)ccc4n1c32 [MW01-E18, 5-hydroxy-1,11,16-triazapentacyclo[10.7.1.0^2,^7.0^8,^20.0^13,^18]icosa-2(7),3,5,8(20),9,11,13(18),14,16-nonaen-19-one]

Compound: COc1ccc2cc3c(N)nn(C(=O)c4cccc(N(C)C)c4)c3nc2c1 [MW05, (3-Amino-7-methoxypyrazolo[3,4-b]quinolin-1-yl)-[3-(dimethylamino)phenyl]methanone]
inhibition at 1 µM (AKT1 (PKB alpha); [15]): 3%
inhibition at 10 µM (AKT1 (PKB alpha); [16]): 3%
inhibition at 1 µM (DNA-PK; [15]): 30%
inhibition at 10 µM (DNA-PK; [16]): 61%
IC50 (DNA-PK; in vitro kinase panel, sub-2000 nM criterion): ≥ 2000 nM
inhibition at 1 µM (DYRK1A; [15]): 22%
inhibition at 10 µM (DYRK1A; [16]): 60%
inhibition at 1 µM (DYRK1B; [15]): 28%
inhibition at 10 µM (DYRK1B; [16]): 69%
inhibition at 1 µM (EGFR (ErbB1); [15]): 13%
inhibition at 10 µM (EGFR (ErbB1); [16]): 5%
inhibition at 1 µM (IKBKB (IKK beta); [15]): 6%
inhibition at 10 µM (IKBKB (IKK beta); [16]): 5%
inhibition at 1 µM (PI4K2A (PI4K2 alpha); [15]): -7%
inhibition at 10 µM (PI4K2A (PI4K2 alpha); [16]): -1%
inhibition at 1 µM (PIK3C2A (PI3K-C2 alpha); [15]): -5%
inhibition at 10 µM (PIK3C2A (PI3K-C2 alpha); [16]): 1%
inhibition at 1 µM [1, 15]: 14%
inhibition at 10 µM [1, 16]: 52%
inhibition at 1 µM [2, 15]: 21%
inhibition at 10 µM [2, 16]: 67%
inhibition at 1 µM [3, 15]: 15%
inhibition at 10 µM [3, 16]: 64%

inhibition at 10 µM (AKT1 (PKB alpha); [4]): 9%
inhibition at 10 µM (DNA-PK; [5]): 16%
inhibition at 10 µM (DYRK1A; [6]): 53%
inhibition at 10 µM (DYRK1B; [7]): 84%
inhibition at 10 µM (EGFR (ErbB1); [8]): 33%
inhibition at 10 µM (IKBKB (IKK beta); [9]): 12%
inhibition at 10 µM (PI4K2A (PI4K2 alpha); [10]): -4%
inhibition at 10 µM (PIK3C2A (PI3K-C2 alpha); [11]): 10%
inhibition at 10 µM [1, 12]: 26%
inhibition at 10 µM [2, 13]: 1%
inhibition at 10 µM [3, 14]: 7%
Compound: COc1ccc2nc3c(cc2c1)c(N)nn3C(=O)c1cccc(N(C)C)c1 [MW05-E2, 1-[3-(dimethylamino)benzoyl]-6-methoxy-1H-pyrazolo[3,4-b]quinolin-3-amine]

Source: patent publication EP4467141A1, “PYRAZOLO-QUINOLINES AS SELECTIVE INHIBITORS OF GENOTOXIC STRESS-INDUCED IKK/NF- KB PATHWAYS FOR CANCER THERAPY” (Max-Delbrück-Centrum für Molekulare Medizin in der …, priority 2023, dated 2024)
